Target: T1, human Nav1.8 (Homo sapiens, UniProt Q9Y5Y9)
Assay: Sophion Qpatch II assay (automated patch clamp)
Assay type: cell-based
Details: resting state block (TP1 measurement), human Nav1.8 HEK293 cells, read-out: P1 IC50
Experimental: Compounds were tested on recombinant human Nav1.8/01 stably transfected HEK293 (Eurofins, CYL3025, St. Charles, MO) cells using the Qpatch II system (Sophion Bioscience A/S, Ballerup—Denmark), an automated patch clamp device. Cells were cultured at 37° C./5% CO2 in DMEM/F-12 supplemented with 10% fetal bovine serum, lx Non-Essential Amino Acids, and selection antibiotics (0.625 μg/mL Puromycin, 400 μg/mL Geneticin, and 100 μg/mL Hygromycin). One or two days prior to recording, cells were moved to a lower temperature 30° C./5% CO2 incubator to increase surface expression of the channels. On the day of the recordings, cells in culture dishes were washed twice with Ca^2+—Mg^2+ free DPBS and treated with Detachin (Genlantis, San Diego) for 3 minutes and then resuspended in Serum Free Medium (EX-CELL® ACF CHO Medium for Cell Culture (Sigma-Aldrich) supplemented with 0.04 mg/mL soybean trypsin Inhibitor and 25 mM HEPES (all components supplied by Sigma-Aldrich, St. Louis, MO) and allowed to recover for a minimum of 20 minutes in the onboard Qstirrer. All experiments were performed at ambient temperature. Intracellular solution contained (mM): CsCl, 50; CsF, 90; MgCl2, 2; EGTA, 5; HEPES, 10; pH adjusted to 7.2 with CsOH. Extracellular solution contained (mM): NaCl, 137; KCl, 4; CaCl2), 3.8; MgCl2, 1; HEPES, 10; Glucose, 10; pH adjusted to 7.4 with NaOH. 500 nM tetrodotoxin (TTX) was added to the extracellular solution to block endogenous TTX-sensitive sodium currents.
Compounds were tested in an interleaved manner across two cohorts of wells to develop an aggregate 8-point concentration response curve. Final concentrations include 0.5% DMSO and 0.03% pluronic Acid. The concentration range spanned a range from 0.01-300 nM. Compounds were diluted 1:10 with extracellular solution within their respective cohort. (R)-2-(4-fluoro-2-methylphenoxy)-N-(3-(S-methylsulfonimidoyl)phenyl)-5-(trifluoromethyl)nicotinamide served as a positive control while DMSO (0.5% by volume) served as a vehicle control to ascertain assay performance.
Whole cell patch clamp recordings were conducted according to Sophion standard procedure for Qpatch II®. Cells were held at a holding potential of −120 mV. A depolarizing step to 10 mV for 30 ms was applied (TP1 measurement), followed by a hyperpolarization step to −100 mV for 20 ms. Due to instability observed at long depolarized potentials, there were no second TP2 measurements attempted. Inter-sweep interval was 15 sec. Following establishment of the whole-cell configuration in extracellular solution, cells were washed twice in extracellular solution containing 0.5% DMSO and 0.03% pluronic acid to stabilize the baseline current. Compounds were then applied by the Qpatch II system into each well in an ascending manner within cohort and the current was recorded for five minutes for each concentration. Percent of current remaining was determined by taking the average of the last 5 sweeps within each concentration and normalizing to the latest pre-compound saline period. The potency of the compounds was assessed on resting state block (TP1 measurement) only to obtain IC50 values. Wells whose initial sodium current magnitude were below 2 nA or whole cell resistance fell below 100 MQ were excluded from analysis.
Examples 220 to 224, Examples 237 to 257 and Example 259 are assayed using Sophion Qpatch II assay described above.

T1 sequence (Q9Y5Y9 whole entry): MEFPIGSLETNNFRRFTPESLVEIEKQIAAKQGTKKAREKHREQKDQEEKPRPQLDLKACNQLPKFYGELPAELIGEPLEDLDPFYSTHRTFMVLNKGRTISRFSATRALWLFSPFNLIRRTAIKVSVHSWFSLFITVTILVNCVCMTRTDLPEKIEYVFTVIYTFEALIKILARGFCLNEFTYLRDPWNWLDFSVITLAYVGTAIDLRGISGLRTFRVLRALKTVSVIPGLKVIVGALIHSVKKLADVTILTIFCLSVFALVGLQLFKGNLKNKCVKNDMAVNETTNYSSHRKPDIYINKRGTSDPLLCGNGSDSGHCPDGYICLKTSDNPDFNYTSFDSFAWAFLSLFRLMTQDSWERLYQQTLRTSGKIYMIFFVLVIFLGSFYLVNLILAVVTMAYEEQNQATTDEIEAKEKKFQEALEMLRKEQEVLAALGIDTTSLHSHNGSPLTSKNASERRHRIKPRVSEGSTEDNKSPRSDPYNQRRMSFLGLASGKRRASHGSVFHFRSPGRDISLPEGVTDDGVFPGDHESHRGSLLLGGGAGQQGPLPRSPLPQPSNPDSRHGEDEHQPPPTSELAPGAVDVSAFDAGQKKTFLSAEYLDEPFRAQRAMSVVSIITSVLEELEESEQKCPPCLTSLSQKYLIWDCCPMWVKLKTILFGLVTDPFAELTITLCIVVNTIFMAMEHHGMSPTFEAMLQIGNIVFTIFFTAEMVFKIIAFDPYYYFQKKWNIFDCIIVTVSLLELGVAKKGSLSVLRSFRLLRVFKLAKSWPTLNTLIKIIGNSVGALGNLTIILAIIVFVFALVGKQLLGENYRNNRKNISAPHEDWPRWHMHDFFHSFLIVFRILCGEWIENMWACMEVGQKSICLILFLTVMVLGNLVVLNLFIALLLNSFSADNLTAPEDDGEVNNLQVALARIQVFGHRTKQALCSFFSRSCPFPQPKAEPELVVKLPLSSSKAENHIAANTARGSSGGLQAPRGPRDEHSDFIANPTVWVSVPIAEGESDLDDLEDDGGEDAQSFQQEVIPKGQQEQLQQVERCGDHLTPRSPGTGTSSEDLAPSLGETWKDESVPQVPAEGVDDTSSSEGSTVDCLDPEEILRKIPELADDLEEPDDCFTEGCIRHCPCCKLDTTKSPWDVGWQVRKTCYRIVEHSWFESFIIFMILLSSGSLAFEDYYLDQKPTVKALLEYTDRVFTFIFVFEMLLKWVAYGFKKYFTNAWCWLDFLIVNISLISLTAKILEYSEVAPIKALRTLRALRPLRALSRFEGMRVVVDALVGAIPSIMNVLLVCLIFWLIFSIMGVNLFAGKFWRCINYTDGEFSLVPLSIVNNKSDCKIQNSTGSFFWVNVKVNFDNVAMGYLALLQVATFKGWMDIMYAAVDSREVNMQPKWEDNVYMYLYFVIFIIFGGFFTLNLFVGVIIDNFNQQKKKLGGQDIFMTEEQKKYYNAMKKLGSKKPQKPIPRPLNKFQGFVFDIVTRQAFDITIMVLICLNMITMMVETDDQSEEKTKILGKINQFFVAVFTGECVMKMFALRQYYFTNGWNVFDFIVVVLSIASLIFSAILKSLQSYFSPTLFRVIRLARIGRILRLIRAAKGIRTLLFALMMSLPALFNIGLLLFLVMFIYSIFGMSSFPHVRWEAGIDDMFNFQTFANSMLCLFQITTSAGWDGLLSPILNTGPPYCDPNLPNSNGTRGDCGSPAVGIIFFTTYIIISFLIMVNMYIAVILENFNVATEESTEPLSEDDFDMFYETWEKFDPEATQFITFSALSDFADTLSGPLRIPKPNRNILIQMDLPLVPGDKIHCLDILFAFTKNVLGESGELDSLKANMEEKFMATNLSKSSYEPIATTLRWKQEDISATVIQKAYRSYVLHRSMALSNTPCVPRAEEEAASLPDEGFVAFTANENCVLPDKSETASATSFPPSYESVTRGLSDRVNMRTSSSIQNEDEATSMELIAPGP

Compound	IC50
Cc1c(C(=O)Nc2ccnc([S@](C)(=N)=O)c2)c(N2CCCC(F)(F)CC2)nc(C2CC2)c1C(F)(F)F [Example 220, (R)-6-cyclopropyl-2-(4,4-difluoroazepan-1-yl)-4-methyl-N-(2-(S-methylsulfonimidoyl)pyridin-4-yl)-5-(trifluoromethyl)nicotinamide]	5 to 50 nM
Cc1c(C(=O)Nc2ccnc([S@@](C)(=N)=O)c2)c(N2CCCC(F)(F)CC2)nc(C2CC2)c1C(F)(F)F [Example 221, (S)-6-cyclopropyl-2-(4,4-difluoroazepan-1-yl)-4-methyl-N-(2-(S-methylsulfonimidoyl)pyridin-4-yl)-5-(trifluoromethyl)nicotinamide]	5 to 50 nM
Cc1c(C(=O)Nc2cccc([S@@](C)(=N)=O)c2)c(N2CCCC(F)(F)CC2)nc(C2CC2)c1C(F)(F)F [Example 223, (S)-6-cyclopropyl-2-(4,4-difluoroazepan-1-yl)-4-methyl-N-(3-(S-methylsulfonimidoyl)phenyl)-5-(trifluoromethyl)nicotinamide]	≤ 5 nM
Cc1c(C(=O)Nc2cccc([S@](C)(=N)=O)c2)c(N2CCCC(F)(F)CC2)nc(C2CC2)c1C(F)(F)F [Example 224, (R)-6-cyclopropyl-2-(4,4-difluoroazepan-1-yl)-4-methyl-N-(3-(S-methylsulfonimidoyl)phenyl)-5-(trifluoromethyl)nicotinamide]	5 to 50 nM
Cc1c(C(F)(F)F)cnc(N2CCO[C@H](C(F)(F)F)C2)c1C(=O)Nc1ccnc([S@](C)(=N)=O)c1 [Example 237, 4-methyl-N-(2-((R)—S-methylsulfonimidoyl)pyridin-4-yl)-5-(trifluoromethyl)-2-((S)-2-(trifluoromethyl)morpholino)nicotinamide]	50 to 100 nM
Cc1c(C(F)(F)F)cnc(N2CCO[C@@H](C(F)(F)F)C2)c1C(=O)Nc1cccc([S@](C)(=N)=O)c1 [Example 238, 4-methyl-N-(3-((R)—S-methylsulfonimidoyl)phenyl)-5-(trifluoromethyl)-2-((R)-2-(trifluoromethyl)morpholino)nicotinamide]	> 200 nM
Cc1c(C(F)(F)F)cnc(N2CCO[C@@H](C(F)(F)F)C2)c1C(=O)Nc1ccnc([S@](C)(=N)=O)c1 [Example 239, 4-methyl-N-(2-((R)—S-methylsulfonimidoyl)pyridin-4-yl)-5-(trifluoromethyl)-2-((R)-2-(trifluoromethyl)morpholino)nicotinamide]	> 200 nM
Cc1c(C(F)(F)F)cnc(N2CCC(F)(F)CC2)c1C(=O)Nc1cccc([S@](C)(=N)=O)c1 [Example 241, (R)-2-(4,4-difluoropiperidin-1-yl)-4-methyl-N-(3-(S-methylsulfonimidoyl)phenyl)-5-(trifluoromethyl)nicotinamide]	5 to 50 nM
Cc1c(C(=O)Nc2ccnc([S@](C)(=N)=O)c2)c(N2CCCC(F)(F)CC2)cc(C2CC2)c1C(F)(F)F [Example 250, (R)-4-cyclopropyl-6-(4,4-difluoroazepan-1-yl)-2-methyl-N-(2-(S-methylsulfonimidoyl)pyridin-4-yl)-3-(trifluoromethyl)benzamide]	≤ 5 nM
NC(=O)[C@H]1C[C@H](NC(=O)c2cc(Cl)c(C(F)(F)F)cc2N2CCCC(F)(F)CC2)C1 [Example 252, N-((trans)-3-carbamoylcyclobutyl)-5-chloro-2-(4,4-difluoroazepan-1-yl)-4-(trifluoromethyl)benzamide]	50 to 100 nM

More lines, now with the values ahead:

IC50	Compound
5 to 50 nM	C[S@@](=N)(=O)c1cccc(NC(=O)c2cc(Cl)c(C(F)(F)F)cc2N2CCC(F)(F)CC2)c1 [Example 222, (R)-5-chloro-2-(4,4-difluoropiperidin-1-yl)-N-(3-(S-methylsulfonimidoyl)phenyl)-4-(trifluoromethyl)benzamide]
5 to 50 nM	Cc1c(C(F)(F)F)cnc(N2CCO[C@H](C(F)(F)F)C2)c1C(=O)Nc1cccc([S@](C)(=N)=O)c1 [Example 240, 4-methyl-N-(3-((R)—S-methylsulfonimidoyl)phenyl)-5-(trifluoromethyl)-2-((S)-2-(trifluoromethyl)morpholino)nicotinamide]
5 to 50 nM	Cc1c(C(F)(F)F)cnc(N2CCC(C(F)(F)F)CC2)c1C(=O)Nc1cccc([S@](C)(=N)=O)c1 [Example 242, (R)-4-methyl-N-(3-(S-methylsulfonimidoyl)phenyl)-5-(trifluoromethyl)-2-(4-(trifluoromethyl)piperidin-1-yl)nicotinamide]
50 to 100 nM	C[S@@](=N)(=O)c1cc(NC(=O)c2cc(Cl)c(C(F)(F)F)cc2N2CCC(C(F)(F)F)CC2)ccn1 [Example 243, (R)-5-chloro-N-(2-(S-methylsulfonimidoyl)pyridin-4-yl)-4-(trifluoromethyl)-2-(4-(trifluoromethyl)piperidin-1-yl)benzamide]
50 to 100 nM	C[S@](=N)(=O)c1cc(NC(=O)c2cc(Cl)c(C(F)(F)F)cc2N2CCC(C(F)(F)F)CC2)ccn1 [Example 244, (S)-5-chloro-N-(2-(S-methylsulfonimidoyl)pyridin-4-yl)-4-(trifluoromethyl)-2-(4-(trifluoromethyl)piperidin-1-yl)benzamide]
5 to 50 nM	C[S@@](=N)(=O)c1cc(NC(=O)c2cc(Cl)c(C(F)(F)F)cc2N2CCC(C(F)(F)F)CC2)ccc1F [Example 245, (R)-5-chloro-N-(4-fluoro-3-(S-methylsulfonimidoyl)phenyl)-4-(trifluoromethyl)-2-(4-(trifluoromethyl)piperidin-1-yl)benzamide]
50 to 100 nM	C[S@](=N)(=O)c1cc(NC(=O)c2cc(Cl)c(C(F)(F)F)cc2N2CCC(C(F)(F)F)CC2)ccc1F [Example 246, (S)-5-chloro-N-(4-fluoro-3-(S-methylsulfonimidoyl)phenyl)-4-(trifluoromethyl)-2-(4-(trifluoromethyl)piperidin-1-yl)benzamide]
100 to 200 nM	C[S@](=N)(=O)c1cc(NC(=O)c2cc(Cl)c(C(F)(F)F)cc2N2CCC(F)(F)CC2)ccn1 [Example 247, (S)-5-chloro-2-(4,4-difluoropiperidin-1-yl)-N-(2-(S-methylsulfonimidoyl)pyridin-4-yl)-4-(trifluoromethyl)benzamide]
50 to 100 nM	C[S@@](=N)(=O)c1cc(NC(=O)c2cc(Cl)c(C(F)(F)F)cc2N2CCC(F)(F)CC2)ccn1 [Example 248, (R)-5-chloro-2-(4,4-difluoropiperidin-1-yl)-N-(2-(S-methylsulfonimidoyl)pyridin-4-yl)-4-(trifluoromethyl)benzamide]
50 to 100 nM	C[S@](=N)(=O)c1cc(NC(=O)c2cc(Cl)c(C(F)(F)F)cc2N2CCC(F)(F)CC2)ccc1F [Example 249, (S)-5-chloro-2-(4,4-difluoropiperidin-1-yl)-N-(4-fluoro-3-(S-methylsulfonimidoyl)phenyl)-4-(trifluoromethyl)benzamide]
50 to 100 nM	C[S@](=N)(=O)c1cccc(NC(=O)c2cc(Cl)c(C(F)(F)F)cc2N2CCC(C(F)(F)F)CC2)c1 [Example 251, (S)-5-chloro-N-(3-(S-methylsulfonimidoyl)phenyl)-4-(trifluoromethyl)-2-(4-(trifluoromethyl)piperidin-1-yl)benzamide]
5 to 50 nM	C[S@@](=N)(=O)c1cc(NC(=O)c2cc(Cl)c(C(F)(F)F)cc2N2CCC(F)(F)CC2)ccc1F [Example 254, (R)-5-chloro-2-(4,4-difluoropiperidin-1-yl)-N-(4-fluoro-3-(S-methylsulfonimidoyl)phenyl)-4-(trifluoromethyl)benzamide]

Target: T1, human Nav1.8
Assay: SyncroPatch384PE assay (automated patch clamp)
Assay type: cell-based
Details: inactivated state block (P2 measurement), human Nav1.8/b3 CHO cells, read-out: P2 IC50

IC50	Compound
≤ 5 nM	Cc1c(C(=O)Nc2cccc([S@@](C)(=O)=NC(=O)[C@@H](C)O)c2)c(N2CCCC(F)(F)CC2)nc(C(F)(F)F)c1-c1cnn(C)c1 [Example 236, 2-(4,4-difluoroazepan-1-yl)-N-(3-((R)-N-((R)-2-hydroxypropanoyl)-S-methylsulfonimidoyl)phenyl)-4-methyl-5-(1-methyl-1H-pyrazol-4-yl)-6-(trifluoromethyl)nicotinamide]

Same assay, conditions: resting state block (P1 measurement), human Nav1.8/b3 CHO cells, read-out: P1 IC50

IC50	Compound
≤ 5 nM	Cc1c(C(=O)Nc2cccc([S@@](C)(=O)=NC(=O)[C@@H](C)O)c2)c(N2CCCC(F)(F)CC2)nc(C(F)(F)F)c1-c1cnn(C)c1 [Example 236, 2-(4,4-difluoroazepan-1-yl)-N-(3-((R)-N-((R)-2-hydroxypropanoyl)-S-methylsulfonimidoyl)phenyl)-4-methyl-5-(1-methyl-1H-pyrazol-4-yl)-6-(trifluoromethyl)nicotinamide]

From patent US20250154109A1, “SODIUM CHANNEL BLOCKING COMPOUNDS, DERIVATIVES THEREOF, AND METHODS OF THEIR USE” (LATIGO BIOTHERAPEUTICS, INC, priority 2022, published 2025)
